Test results as given in ChEMBL document CHEMBL3627718, “Design, synthesis and preliminary bioactivity studies of imidazolidine-2,4-dione derivatives as Bcl-2 inhibitors” (Bioorg Med Chem, 2015).
pIC50, pKi: −log10 of the molar value. One block for each compound: values may come before it.

Legend:
[1] = system: K562; experiment: Cytotoxicity against human K562 cells assessed as inhibition of cell proliferation after 48 hrs by MTT assay; format: functional, cell-based; conditions: K562, 48 h
[2] = system: PC-3; experiment: Cytotoxicity against human PC3 cells assessed as inhibition of cell proliferation after 48 hrs by MTT assay; format: functional, cell-based; conditions: PC-3, 48 h
[3] = molecular target: Apoptosis regulator Bcl-2 (Homo sapiens, UniProt P10415); experiment: Competitive binding affinity to Bcl-2 (unknown origin) preincubated for 30 mins followed by 5-FAM-Bid-BH3 peptide addition measured after 20 mins by fluorescence polarization assay
[4] = system: MDA-MB-231; experiment: Cytotoxicity against human MDA-MB-231 cells assessed as inhibition of cell proliferation after 48 hrs by MTT assay; format: functional, cell-based; conditions: MDA-MB-231, 48 h
[5] = molecular target: Induced myeloid leukemia cell differentiation protein Mcl-1 (Homo sapiens, UniProt Q07820); experiment: Competitive binding affinity to Mcl-1 (unknown origin) preincubated for 30 mins followed by 5-FAM-Bid-BH3 peptide addition measured after 20 mins by fluorescence polarization assay
[6] = molecular target: Bcl-2-like protein 1 (Homo sapiens, UniProt Q07817); experiment: Competitive binding affinity to Bcl-XL (unknown origin) preincubated for 30 mins followed by 5-FAM-Bid-BH3 peptide addition measured after 20 mins by fluorescence polarization assay
Sequence of Bcl-2-like protein 1 (Q07817 whole entry): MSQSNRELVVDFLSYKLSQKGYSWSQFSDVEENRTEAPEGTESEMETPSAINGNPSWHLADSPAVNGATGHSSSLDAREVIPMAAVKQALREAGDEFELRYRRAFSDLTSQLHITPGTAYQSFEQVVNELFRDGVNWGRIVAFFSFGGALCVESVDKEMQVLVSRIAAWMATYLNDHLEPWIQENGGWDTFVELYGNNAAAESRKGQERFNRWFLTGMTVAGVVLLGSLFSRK

Sequence of Apoptosis regulator Bcl-2 (P10415 whole entry): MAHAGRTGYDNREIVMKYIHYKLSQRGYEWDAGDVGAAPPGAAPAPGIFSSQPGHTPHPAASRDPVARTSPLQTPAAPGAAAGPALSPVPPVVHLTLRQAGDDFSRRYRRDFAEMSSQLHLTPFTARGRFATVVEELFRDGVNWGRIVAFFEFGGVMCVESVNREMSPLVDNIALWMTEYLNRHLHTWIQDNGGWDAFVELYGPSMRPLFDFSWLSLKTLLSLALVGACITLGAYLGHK
Sequence of Induced myeloid leukemia cell differentiation protein Mcl-1 (Q07820 whole entry): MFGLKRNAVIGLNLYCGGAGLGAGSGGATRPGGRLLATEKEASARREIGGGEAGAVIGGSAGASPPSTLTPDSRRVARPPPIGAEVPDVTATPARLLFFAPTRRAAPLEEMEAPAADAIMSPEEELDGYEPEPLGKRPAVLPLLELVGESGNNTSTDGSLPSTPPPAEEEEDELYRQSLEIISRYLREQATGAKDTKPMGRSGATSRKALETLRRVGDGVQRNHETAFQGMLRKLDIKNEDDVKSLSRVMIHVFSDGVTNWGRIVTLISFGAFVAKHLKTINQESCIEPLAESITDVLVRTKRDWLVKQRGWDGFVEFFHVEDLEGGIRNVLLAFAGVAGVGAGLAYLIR

pKi [3]: 6.21
SMILES: Cc1ccc(S(=O)(=O)NC(=O)[C@H](Cc2ccccc2)N2C(=O)/C(=C/c3ccc(-c4ccccc4)cc3)SC2=S)cc1
pIC50 [1]: 4.35
pIC50 [2]: 4.40
pIC50 [4]: 4.45

pKi [3]: < 4.30
SMILES: O=C(Nc1ccc(O)cc1)[C@H](Cc1ccccc1)N1C(=O)N[C@@H](Cc2ccc(-c3ccc(Cl)cc3)cc2)C1=O

pKi [3]: < 4.30
SMILES: COC(=O)[C@H](Cc1ccccc1)NC(=O)[C@H](Cc1ccccc1)N1C(=O)N[C@@H](Cc2ccc(-c3ccc(Cl)cc3)cc2)C1=O

pKi [3]: < 4.30
SMILES: O=C(O)[C@H](Cc1ccccc1)NC(=O)[C@H](Cc1ccccc1)N1C(=O)N[C@@H](Cc2ccc(-c3ccc(Cl)cc3)cc2)C1=O

pKi [3]: < 4.30
SMILES: O=C(O)[C@H](Cc1ccccc1)N1C(=O)N[C@@H](Cc2ccccc2)C1=O

pKi [3]: < 4.30
SMILES: O=C(O)[C@H](Cc1ccccc1)N1C(=O)N[C@@H](Cc2ccc(Br)cc2)C1=O

pKi [3]: < 4.30
SMILES: O=C(O)[C@H](Cc1ccccc1)N1C(=O)N[C@@H](Cc2ccc(-c3ccc(Cl)cc3)cc2)C1=O

pKi [3]: < 4.30
SMILES: Cc1cccc(-c2ccc(C[C@@H]3NC(=O)N([C@@H](Cc4ccccc4)C(=O)O)C3=O)cc2)c1

pKi [3]: < 4.30
SMILES: O=C(O)[C@H](Cc1ccccc1)N1C(=O)N[C@@H](Cc2ccc(-c3ccnc(F)c3)cc2)C1=O

pKi [3]: < 4.30
SMILES: O=C(NS(=O)(=O)c1ccccc1)[C@H](Cc1ccccc1)N1C(=O)N[C@@H](Cc2ccccc2)C1=O

pKi [3]: < 4.30
SMILES: O=C(NS(=O)(=O)c1ccc(Cl)c([N+](=O)[O-])c1)[C@H](Cc1ccccc1)N1C(=O)N[C@@H](Cc2ccccc2)C1=O

pKi [3]: < 4.30
SMILES: O=C(NS(=O)(=O)c1ccccc1)[C@H](Cc1ccccc1)N1C(=O)N[C@@H](Cc2ccc(Br)cc2)C1=O

pKi [3]: < 4.30
SMILES: O=C(NS(=O)(=O)c1ccc(Cl)c([N+](=O)[O-])c1)[C@H](Cc1ccccc1)N1C(=O)N[C@@H](Cc2ccc(Br)cc2)C1=O

pKi [3]: 4.72
SMILES: O=C(NS(=O)(=O)c1ccccc1)[C@H](Cc1ccccc1)N1C(=O)N[C@@H](Cc2ccc(-c3ccc(Cl)cc3)cc2)C1=O

pKi [3]: < 4.30
SMILES: Cc1ccc(S(=O)(=O)NC(=O)[C@H](Cc2ccccc2)N2C(=O)N[C@@H](Cc3ccc(-c4ccc(Cl)cc4)cc3)C2=O)cc1

pKi [3]: 5.43
pKi [5]: 5.54
pKi [6]: 5.21
SMILES: O=C(NS(=O)(=O)c1ccc(Cl)c([N+](=O)[O-])c1)[C@H](Cc1ccccc1)N1C(=O)N[C@@H](Cc2ccc(-c3ccc(Cl)cc3)cc2)C1=O
pIC50 [1]: 4.40
pIC50 [2]: 4.29
pIC50 [4]: 4.15

pKi [3]: 4.82
pKi [5]: < 4.30
pKi [6]: < 4.30
SMILES: O=C(NS(=O)(=O)c1cccc([N+](=O)[O-])c1)[C@H](Cc1ccccc1)N1C(=O)N[C@@H](Cc2ccc(-c3ccc(Cl)cc3)cc2)C1=O
pIC50 [1]: 4.31
pIC50 [2]: 4.13
pIC50 [4]: 4.12

pKi [3]: < 4.30
SMILES: Cc1cccc(-c2ccc(C[C@@H]3NC(=O)N([C@@H](Cc4ccccc4)C(=O)NS(=O)(=O)c4ccccc4)C3=O)cc2)c1

pKi [3]: 4.89
pKi [5]: < 4.30
pKi [6]: < 4.30
SMILES: Cc1ccc(S(=O)(=O)NC(=O)[C@H](Cc2ccccc2)N2C(=O)N[C@@H](Cc3ccc(-c4cccc(C)c4)cc3)C2=O)cc1
pIC50 [1]: 4.33
pIC50 [2]: 4.25
pIC50 [4]: 4.20

pKi [3]: 5.36
pKi [5]: 5.64
pKi [6]: 5.33
SMILES: Cc1cccc(-c2ccc(C[C@@H]3NC(=O)N([C@@H](Cc4ccccc4)C(=O)NS(=O)(=O)c4ccc(Cl)c([N+](=O)[O-])c4)C3=O)cc2)c1
pIC50 [1]: 4.45
pIC50 [2]: 4.55
pIC50 [4]: 4.24

pKi [3]: 4.89
pKi [5]: 5.03
pKi [6]: < 4.30
SMILES: O=Cc1ccc(-c2ccc(C[C@@H]3NC(=O)N([C@@H](Cc4ccccc4)C(=O)NS(=O)(=O)c4ccc(Cl)c([N+](=O)[O-])c4)C3=O)cc2)cc1
pIC50 [1]: 4.16
pIC50 [2]: 4.20
pIC50 [4]: 4.08

pKi [3]: < 4.30
SMILES: O=C(NS(=O)(=O)c1ccccc1)[C@H](Cc1ccccc1)N1C(=O)N[C@@H](Cc2ccc(-c3ccnc(F)c3)cc2)C1=O

pKi [3]: < 4.30
SMILES: Cc1ccc(S(=O)(=O)NC(=O)[C@H](Cc2ccccc2)N2C(=O)N[C@@H](Cc3ccc(-c4ccnc(F)c4)cc3)C2=O)cc1

pKi [3]: < 4.30
SMILES: O=C(NS(=O)(=O)c1ccc(Cl)c([N+](=O)[O-])c1)[C@H](Cc1ccccc1)N1C(=O)N[C@@H](Cc2ccc(-c3ccnc(F)c3)cc2)C1=O

pKi [3]: < 4.30
SMILES: COC(=O)[C@@H](NC(=O)[C@H](Cc1ccccc1)N1C(=O)N[C@@H](Cc2ccc(-c3ccc(Cl)cc3)cc2)C1=O)C(C)C

pKi [3]: < 4.30
SMILES: CC(C)[C@H](NC(=O)[C@H](Cc1ccccc1)N1C(=O)N[C@@H](Cc2ccc(-c3ccc(Cl)cc3)cc2)C1=O)C(=O)O

pKi [3]: < 4.30
SMILES: CC(=O)Oc1ccc(NC(=O)[C@H](Cc2ccccc2)N2C(=O)N[C@@H](Cc3ccc(-c4ccc(Cl)cc4)cc3)C2=O)cc1
